Article PMC8855934 (Journal of medicinal chemistry, 2021)
Substitutions are numbered along the chain they refer to. One block for each molecule: values may come before it.

Key:
Oral exposures in mice = type: in vivo; details: oral gavage, non-tumor-bearing male mice (Table S1)
AR T878A mutant protein = molecular target: T1, AR T878A mutant protein (Homo sapiens, UniProt P10275, T878A); details: LNCaP, 1 h
T1 sequence (P10275 1-920 T878A): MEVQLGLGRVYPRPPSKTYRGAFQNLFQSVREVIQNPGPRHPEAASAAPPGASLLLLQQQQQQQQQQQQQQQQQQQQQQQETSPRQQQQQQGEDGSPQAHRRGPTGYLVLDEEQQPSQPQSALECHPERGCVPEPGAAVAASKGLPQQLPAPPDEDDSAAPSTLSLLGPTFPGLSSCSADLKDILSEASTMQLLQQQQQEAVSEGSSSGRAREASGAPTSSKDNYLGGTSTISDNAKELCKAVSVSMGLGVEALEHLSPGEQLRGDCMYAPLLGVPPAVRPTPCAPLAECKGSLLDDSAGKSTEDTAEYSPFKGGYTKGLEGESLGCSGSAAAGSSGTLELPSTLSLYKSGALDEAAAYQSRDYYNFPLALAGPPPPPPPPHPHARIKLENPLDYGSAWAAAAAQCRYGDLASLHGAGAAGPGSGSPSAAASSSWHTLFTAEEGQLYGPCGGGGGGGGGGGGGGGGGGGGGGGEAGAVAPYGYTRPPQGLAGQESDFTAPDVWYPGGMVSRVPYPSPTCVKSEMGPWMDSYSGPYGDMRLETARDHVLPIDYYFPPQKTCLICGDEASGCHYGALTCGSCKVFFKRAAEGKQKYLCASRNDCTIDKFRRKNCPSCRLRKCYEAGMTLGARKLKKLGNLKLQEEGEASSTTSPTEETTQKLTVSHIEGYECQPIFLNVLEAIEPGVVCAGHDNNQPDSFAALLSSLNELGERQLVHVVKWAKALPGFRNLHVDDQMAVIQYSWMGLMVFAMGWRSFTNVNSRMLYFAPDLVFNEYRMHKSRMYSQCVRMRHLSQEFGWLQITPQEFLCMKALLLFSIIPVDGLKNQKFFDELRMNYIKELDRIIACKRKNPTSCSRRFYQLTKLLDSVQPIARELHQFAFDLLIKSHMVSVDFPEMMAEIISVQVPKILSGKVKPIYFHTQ

Pharmacokinetics in mice = type: in vivo; details: male, mouse, iv, 1 mg/kg
AR protein [1] = molecular target: T2, AR protein (Homo sapiens, UniProt P10275); assay: AR degradation in VCaP cell line; type: cell-based; details: for reduction of AR protein level (degradation kinetics) / Dmax: VCaP; for reduction of AR protein level (degradation kinetics): 1 h; for Dmax: read-out: Dmax, AR degradation in VCaP cell line, VCaP cell line, 24 h treatment, Western blotting
T2 sequence (P10275 1-920): T1 sequence (P10275 1-920 T878A) with A878T

AR protein [2] = molecular target: T2, AR protein; details: single oral administration 20 mg/kg, 6 and 24 h time-points, Western blotting

SMILES: CN(c1ccc(C#N)c(Cl)c1)[C@H]1CC[C@H](NC(=O)c2ccc(N3CCC(N4CCN(c5ccc6c(c5)C(=O)N(C5CCC(=O)NC5=O)C6=O)CC4)CC3)cc2)CC1 (stereo partly drawn) [Compound 35]
clearance (Pharmacokinetics in mice; plasma): 5 mL/min/kg

SMILES: CN(c1ccc(C#N)c(Cl)c1)[C@H]1CC[C@H](NC(=O)c2ccc(N3CCC(CN4CCN(c5ccc6c(c5)C(=O)N(C5CCC(=O)NC5=O)C6=O)CC4)CC3)cc2)CC1 (stereo partly drawn) [Compound 40, N-(1R,4R)-4-(((3-Chloro-4-cyanophenyl)(methyl)amino)-cyclohexyl)-4-(4-((4-(2-(2,6-dioxopiperidin-3-yl)-1,3-dioxoisoindolin-5-yl)piperazin-1-yl)methyl)piperidin-1-yl)benzamide]
reduction of AR protein level (degradation kinetics) (AR T878A mutant protein): effectively reduce
reduction of AR protein level (degradation kinetics) (AR protein [1]): effectively reduce

SMILES: CN(c1ccc(C#N)c(Cl)c1)[C@H]1CC[C@H](NC(=O)c2ccc(N3CCN(C4CCN(c5ccc6c(c5)C(=O)N(C5CCC(=O)NC5=O)C6=O)CC4)CC3)cc2)CC1 (stereo partly drawn) [Compound 41, N-(1R,4R)-4-(((3-Chloro-4-cyanophenyl)(methyl)amino)-cyclohexyl)-4-(4-(1-(2-(2,6-dioxopiperidin-3-yl)-1,3-dioxoisoindolin-5-yl)piperidin-4-yl)piperazin-1-yl)benzamide]
reduction of AR protein level (degradation kinetics) (AR T878A mutant protein): effectively reduce
reduction of AR protein level (degradation kinetics) (AR protein [1]): effectively reduce
reduction of AR protein level in VCaP tumor tissue (AR protein [2]): effective

SMILES: CN(c1ccc(C#N)c(Cl)c1)[C@H]1CC[C@H](NC(=O)c2ccc(N3CC(CN4CCN(c5ccc6c(c5)C(=O)N(C5CCC(=O)NC5=O)C6=O)CC4)C3)cc2)CC1 (stereo partly drawn) [Compound 44, N-(1R,4R)-4-(((3-Chloro-4-cyanophenyl)(methyl)amino)-cyclohexyl)-4-(3-((4-(2-(2,6-dioxopiperidin-3-yl)-1,3-dioxoisoindolin-5-yl)piperazin-1-yl)methyl)azetidin-1-yl)benzamide]
reduction of AR protein level (degradation kinetics) (AR T878A mutant protein): effectively reduce
reduction of AR protein level (degradation kinetics) (AR protein [1]): effectively reduce

SMILES: CN(c1ccc(C#N)c(Cl)c1)[C@H]1CC[C@H](NC(=O)c2ccc(N3CC(N4CCN(c5ccc6c(c5)C(=O)N(C5CCC(=O)NC5=O)C6=O)CC4)C3)cc2)CC1 (stereo partly drawn) [Compound 45, N-(1R,4R)-4-(((3-Chloro-4-cyanophenyl)(methyl)amino)-cyclohexyl)-4-(3-(4-(2-(2,6-dioxopiperidin-3-yl)-1,3-dioxoisoindolin-5-yl)piperazin-1-yl)azetidin-1-yl)benzamide]
reduction of AR protein level (degradation kinetics) (AR T878A mutant protein): effectively reduce
Vd (Pharmacokinetics in mice; in vivo): 1.8 to 2.1 L/kg
clearance (Pharmacokinetics in mice; in vivo): 3.33 to 5 mL/min/kg
half-life (Pharmacokinetics in mice; in vivo): 5.5 to 7.5 h
clearance (Pharmacokinetics in mice; plasma): 3.33 mL/min/kg
reduction of AR protein level (degradation kinetics) (AR protein [1]): effectively reduce
reduction of AR protein level in VCaP tumor tissue (AR protein [2]): effective

SMILES: CC(O)(CS(=O)(=O)c1ccc(N2CCN(C3CCN(c4ccc5c(c4)C(=O)N(C4CCC(=O)NC4=O)C5=O)CC3)CC2)cc1)C(=O)Nc1ccc(C#N)c(C(F)(F)F)c1 (stereo not drawn) [Compound 46, N-(4-Cyano-3-(trifluoromethyl)phenyl)-3-((4-(4-(1-(2-(2,6-dioxopiperidin-3-yl)-1,3-dioxoisoindolin-5-yl)piperidin-4-yl)piperazin-1-yl)phenyl)sulfonyl)-2-hydroxy-2-methylpropanamide]
Dmax (AR protein [1]): < 32%

Now from value to molecule:

oral exposures in mice (Oral exposures in mice): very low
SMILES: N#Cc1ccc(O[C@H]2CC[C@H](NC(=O)c3ccc(NCCCNc4ccc5c(c4)C(=O)N(C4CCC(=O)NC4=O)C5=O)cc3)CC2)cc1Cl (stereo partly drawn) [Compound 11, N-((1R,4R)-4-(3-Chloro-4-cyanophenoxy)cyclohexyl)-4-((3-((2-(2,6-dioxopiperidin-3-yl)-1,3-dioxoisoindolin-5-yl)amino)propyl)-amino)benzamide]

oral exposures in mice (Oral exposures in mice): very low
SMILES: N#Cc1ccc(O[C@H]2CC[C@H](NC(=O)c3ccc(NCCCCCNc4ccc5c(c4)C(=O)N(C4CCC(=O)NC4=O)C5=O)cc3)CC2)cc1Cl (stereo partly drawn) [Compound 13, N-((1R,4R)-4-(3-Chloro-4-cyanophenoxy)cyclohexyl)-4-((5-((2-(2,6-dioxopiperidin-3-yl)-1,3-dioxoisoindolin-5-yl)amino)pentyl)-amino)benzamide]

reduction of AR protein level (degradation kinetics) (AR T878A mutant protein): effectively reduce
clearance (Pharmacokinetics in mice; plasma): 6.67 mL/min/kg
reduction of AR protein level (degradation kinetics) (AR protein [1]): effectively reduce
SMILES: N#Cc1ccc(O[C@H]2CC[C@H](NC(=O)c3ccc(N4CCC(N5CCN(c6ccc7c(c6)C(=O)N(C6CCC(=O)NC6=O)C7=O)CC5)CC4)cc3)CC2)cc1Cl (stereo partly drawn) [Compound 26, N-(1R,4R)-4-((3-Chloro-4-cyanophenoxy)cyclohexyl)-4-(4-(4-(2-(2,6-dioxopiperidin-3-yl)-1,3-dioxoisoindolin-5-yl)piperazin-1-yl)-piperidin-1-yl)benzamide]

reduction of AR protein level (degradation kinetics) (AR T878A mutant protein): effectively reduce
reduction of AR protein level (degradation kinetics) (AR protein [1]): effectively reduce
SMILES: N#Cc1ccc(O[C@H]2CC[C@H](NC(=O)c3ccc(N4CCN(CC5CN(c6ccc7c(c6)C(=O)N(C6CCC(=O)NC6=O)C7=O)C5)CC4)cc3)CC2)cc1Cl (stereo partly drawn) [Compound 27, N-(1R,4R)-4-((3-Chloro-4-cyanophenoxy)cyclohexyl)-4-(4-((l-(2-(2,6-dioxopiperidin-3-yl)-1,3-dioxoisoindolin-5-yl)azetidin-3-yl)-methyl)piperazin-1-yl)benzamide]

Dmax, AR degradation in VCaP cell line (AR protein [1]; VCaP cell line, 24 h treatment, Western blotting): 54%
SMILES: N#Cc1ccc(O[C@H]2CCC[C@H](NC(=O)c3ccc(N4CCC(N5CCN(c6ccc7c(c6)C(=O)N(C6CCC(=O)NC6=O)C7=O)CC5)CC4)cc3)CCC2)cc1Cl (stereo partly drawn) [Compound 31, N-(1R,5R)-5-((3-Chloro-4-cyanophenoxy)cyclooctyl)-4-(4-(4-(2-(2,6-dioxopiperidin-3-yl)-1,3-dioxoisoindolin-5-yl)piperazin-1-yl)-piperidin-1-yl)benzamide]

effect in reducing AR protein (in words) (AR protein [1]; VCaP cell line): little or no effect
SMILES: N#Cc1ccc(OC2CCN(C(=O)c3ccc(N4CCC(N5CCN(c6ccc7c(c6)C(=O)N(C6CCC(=O)NC6=O)C7=O)CC5)CC4)cc3)CC2)cc1Cl (stereo not drawn) [Compound 32, 2-Chloro-4-((1-(4-(4-(4-(2-(2,6-dioxopiperidin-3-yl)-1,3-dioxoisoindolin-5-yl)piperazin-1-yl)piperidin-1-yl)benzoyl)piperidin-4-yl)-oxy)benzonitrile]

effect in reducing AR protein (in words) (AR protein [1]; VCaP cell line): little or no effect
SMILES: N#Cc1ccc(O[C@@H]2CCCN(C(=O)c3ccc(N4CCC(N5CCN(c6ccc7c(c6)C(=O)N(C6CCC(=O)NC6=O)C7=O)CC5)CC4)cc3)CC2)cc1Cl (stereo partly drawn) [Compound 33]

Dmax (AR protein [1]): < 32%
SMILES: N#Cc1ncc(N2C(=O)C3(CCC3)N(c3ccc(C(=O)N4CCN(C5CCN(c6ccc7c(c6)C(=O)N(C6CCC(=O)NC6=O)C7=O)CC5)CC4)c(F)c3)C2=S)cc1C(F)(F)F (stereo not drawn) [Compound 48, 5-(5-(4-(4-(1-(2-(2,6-Dioxopiperidin-3-yl)-1,3-dioxoisoindolin-5-yl)piperidin-4-yl)piperazine-1-carbonyl)-3-fluorophenyl)-8-oxo-6-thioxo-5,7-diazaspiro[3.4]octan-7-yl)-3-(trifluoromethyl)-picolinonitrile]
